Experimental data as given in US20100184674A1, “PROADRENOMEDULLIN ALONE OR IN COMBINATION WITH BIG GASTRIN I AS A THERAPEUTIC AGENT” (priority 2007, published 2010).
Where no end group is shown, it is not given here. [ ]: non-standard residue; d: D form. pGlu = O=C1CC[C@@H](C(=O)O)N1

Tested on: drug-resistant Mycobacterium tuberculosis
Assay type: cell-based
Conditions: 10 micrograms per ml; seven days; strain resistant against PAS, streptomycin and isoniazid

Substance	inhibition of the growth of Mycobacterium tuberculosis
Ala-Arg-Leu-Asp-Val-Ala-Ser-Glu-Phe-Arg-Lys-Lys-Trp-Asn-Lys-Trp-Ala-Leu-Ser-Arg-NH2 (ARLDVASEFRKKWNKWALSR-NH2) [Peptide 1]	100%
Pyr-Leu-Gly-Pro-Gln-Gly-Pro-Pro-His-Leu-Val-Ala-Asp-Pro-Ser-Lys-Lys-Gln-Gly-Pro-Trp-Leu-Glu-Glu-Glu-Glu-Glu-Ala-Tyr-Gly-Trp-Met-Asp-Phe-NH2 ([pGlu]LGPQGPPHLVADPSKKQGPWLEEEEEAYGWMDF-NH2; SMILES CSCC[C@H](NC(=O)[C@H](Cc1c[nH]c2ccccc12)NC(=O)CNC(=O)[C@H](Cc1ccc(O)cc1)NC(=O)[C@H](C)NC(=O)[C@H](CCC(=O)O)NC(=O)[C@H](CCC(=O)O)NC(=O)[C@H](CCC(=O)O)NC(=O)[C@H](CCC(=O)O)NC(=O)[C@H](CCC(=O)O)NC(=O)[C@H](CC(C)C)NC(=O)[C@H](Cc1c[nH]c2ccccc12)NC(=O)[C@@H]1CCCN1C(=O)CNC(=O)[C@H](CCC(N)=O)NC(=O)[C@H](CCCCN)NC(=O)[C@H](CCCCN)NC(=O)[C@H](CO)NC(=O)[C@@H]1CCCN1C(=O)[C@H](CC(=O)O)NC(=O)[C@H](C)NC(=O)[C@@H](NC(=O)[C@H](CC(C)C)NC(=O)[C@H](Cc1c[nH]cn1)NC(=O)[C@@H]1CCCN1C(=O)[C@@H]1CCCN1C(=O)CNC(=O)[C@H](CCC(N)=O)NC(=O)[C@@H]1CCCN1C(=O)CNC(=O)[C@H](CC(C)C)NC(=O)[C@@H]1CCC(=O)N1)C(C)C)C(=O)N[C@@H](CC(=O)O)C(=O)N[C@@H](Cc1ccccc1)C(N)=O) [Peptide 2]	100%
